Assays:
Type in all cases: in vivo
[1] = system: two-spotted spider mite (Tetranychus urticae); assay: Tetranychus test (resistant), degree of destruction of spider mites on bean plants; settings: 48 h, after 2 days; for mortality at 0.0001 %: active compound concentration 0.0001%; for mortality at 0.001 %: active compound concentration 0.001%
Protocol: (§1) Solvent: 3 parts by weight of dimethylformamide
(§2) Emulsifier: 1 part by weight of alkylaryl polyglycol ether
To produce a suitable preparation of active compound, 1 part by weight of the active compound was mixed with the stated amount of solvent and the stated amount of emulsifier and the concentrate was diluted with water to the desired concentration.
Bean plants (Phaseolus vulgaris) which were heavily infested with the two-spotted spider mite (Tetranychus urticae) in all stages of development were sprayed with the preparation of the active compound until dripping wet.
After the specified periods of time, the degree of destruction was determined as a percentage: 100% meant that all of the spider mites were killed whereas 0% meant that none of the spider mites were killed.

Laphygma exempta (eggs) = assay: Development-inhibiting action, Laphygma exempta (eggs); settings: concentration 10 ppm, up to larvae of third stage
Text: (§3) Examples 8 and 9, which are given below, show the arthropod development-inhibiting action of the compounds according to the invention without implying a limitation in respect of the breadth of action of these compounds. In the experiments, the morphological changes, such as half-pupated insects, incompletely slipped larvae or caterpillars, defective wings, pupal cuticula in the case of imagos and the like are rated as malformations over the entire stated development of the test insects. The sum of the morphological malformations, together with the insects killed during the sloughing or the metamorphosis, is given in percent of the test insects.
Test insect: Laphygma exempta (eggs)
Solvent: 10 parts by weight of acetone
as §2
To produce a suitable preparation of active compound, 2 parts by weight of active compound were mixed with the stated amount of solvent, emulsifier and sufficient water to produce a 1% strength mixture, which was diluted with water to the desired concentration.
Deposited eggs, at the rate of 30 eggs on a filter-paper, were moistened with 1 ml of active compound solution of the stated concentration in ppm (parts per million) and were observed, in plastic boxes, until the young larvae slipped. The young larvae were fed with corn leaves which had been sprayed with the stated concentration of active compound solution on the same day as the eggs.
The development of the test insects was observed up to the larvae of the third stage.
As a control, deposited eggs were treated in the same manner with solvent and emulsifier of the corresponding concentration, and feeding was carried out with corn leaves.

[2] = system: Ceratitis capitata (eggs); assay: Development-inhibiting action, Ceratitis capitata (eggs); settings: concentration 10 ppm in synthetic feed, eggs until flies slipped
Text: as §3
Test insect: Ceratitis capitata (eggs), 20 specimens
Feed: Synthetic feed (carrot powder with yeast powder)
Solvent: 20 parts by weight of acetone
Emulsifier: 5 parts by weight of alkylaryl polyglycol ether
To produce a suitable preparation of active compound, 4 parts by weight of active compound were mixed with the stated amount of solvent, emulsifier and sufficient water to produce a 1% strength mixture which was diluted with water to the desired concentration.
The eggs of the test insects were placed on a dish with synthetic feed, into which the selected concentration of the active compound mixture was incorporated so that the stated amount of active compound in ppm (parts per million) was obtained. The development was observed until the flies slipped.
As a control, synthetic feed mixed only with solvent and emulsifier of the stated concentration was presented.

[3] = system: mustard beetle larvae (Phaedon cochleariae); assay: Phaedon larvae test, degree of destruction on cabbage leaves; settings: 72 h, after 3 days; for mortality at 0.001 %: active compound concentration 0.001%; for mortality at 0.01 %: active compound concentration 0.01%
Protocol: as §1
Emulsifier: 1 part by weight of alkylarly polyglycol ether
To produce a suitable preparation of active compound, 1 part by weight of the active compound was mixed with the stated amount of solvent containing the stated amount of emulsifier and the concentrate was diluted with water to the desired concentration.
Cabbage leaves (Brassica oleracea) were sprayed with the preparation of the active compound until dripping wet and were then infested with mustard beetle larvae (Phaedon cochleariae).
After the specified periods of time, the degree of destruction was determined in %: 100% meant that all of the beetle larvae had been killed whereas 0% meant that none of the beetle larvae had been killed.

SMILES	mortality at 0.0001 % [1] [%]	mortality at 0.001 % [1] [%]	inhibition at 10 ppm (Laphygma exempta (eggs)) [%]	inhibition at 10 ppm [2] [%]	mortality at 0.001 % [3] [%]	mortality at 0.01 % [3] [%]
O=[N+]([O-])c1cc([N+](=O)[O-])c(Nc2c(Cl)cccc2Cl)c(C(F)(F)F)c1 [A, reference compound]	0	98	20			
O=[N+]([O-])c1cc([N+](=O)[O-])c(Nc2cccc(OC(F)(F)F)c2)c(C(F)(F)F)c1 [Compound 24]	95	100				
O=[N+]([O-])c1cc([N+](=O)[O-])c(Nc2ccc(OC(F)(F)F)cc2Cl)c(C(F)(F)F)c1 [Compound 13, 2-(2-chloro-4-trifluoromethoxy-anilino)-3,5-dinitro-benzotrifluoride]	100	100	100	100	85	100
O=[N+]([O-])c1cc([N+](=O)[O-])c(Nc2cc(SC(F)(F)F)ccc2Cl)c(C(F)(F)F)c1 [Compound 22]		100				
O=[N+]([O-])c1cc([N+](=O)[O-])c(Nc2cc(S(=O)(=O)C(F)(F)F)ccc2Cl)c(C(F)(F)F)c1 [Compound 14]					80	100
CSc1ccc(Nc2c([N+](=O)[O-])cc([N+](=O)[O-])cc2C(F)(F)F)c(C(F)(F)F)c1 [Compound 10]	50	98				
O=[N+]([O-])c1cc([N+](=O)[O-])c(Nc2cc(Cl)ccc2Cl)c(C(F)(F)F)c1 [B, reference compound]					0	100
O=[N+]([O-])c1cc([N+](=O)[O-])c(Nc2c(Cl)cc(S(=O)(=O)C(F)(F)F)cc2Cl)c(C(F)(F)F)c1 [Compound 8]				100		
O=[N+]([O-])c1cc([N+](=O)[O-])c(Nc2cccc(SC(F)(F)F)c2)c(C(F)(F)F)c1 [Compound 25]	95	100				
O=[N+]([O-])c1cc([N+](=O)[O-])c(Nc2ccc(S(=O)(=O)C(F)(F)F)cc2Cl)c(C(F)(F)F)c1 [Compound 7]				100		
O=[N+]([O-])c1cc([N+](=O)[O-])c(Nc2ccc(OC(F)(F)F)c(Cl)c2)c(C(F)(F)F)c1 [Compound 9]	100	100	100	100		
O=[N+]([O-])c1cc([N+](=O)[O-])c(Nc2ccccc2SC(F)(F)F)c(C(F)(F)F)c1 [Compound 21]	50	100				
O=[N+]([O-])c1cc([N+](=O)[O-])c(Nc2ccc3c(c2)C(F)(F)OC(F)(F)O3)c(C(F)(F)F)c1 [Compound 2]	100	100				
O=[N+]([O-])c1cc([N+](=O)[O-])c(Nc2ccc(SC(F)(F)F)cc2)c(C(F)(F)F)c1 [Compound 4]	99	100			50	100
O=[N+]([O-])c1cc([N+](=O)[O-])c(Nc2ccc(OC(F)(F)F)cc2)c(C(F)(F)F)c1 [Compound 1, 2-(4-trifluoromethoxy-anilino)-3,5-dinitro-benzotrifluoride]	70	100		100		

Source: US4459304A, “Combating pests with 2-anilino-3,5-dinitro-benzotrifluorides” (Bayer Aktiengesellschaft, priority 1977, dated 1984)
